The values that follow come from the OligoGym collection.

HELM strings list units from the 5' end as sugar, base in round brackets, then linkage (d deoxyribose, r ribose, m 2'-O-methyl, p phosphodiester). Strings are as the collection lists them; they lack the last nucleoside at the 3' end of the tested compound. [moe] = 2'-O-(2-methoxyethyl) (MOE); [sp] = phosphorothioate linkage; [m5C] = 5-methylcytosine

In the data set the target is UBE3A-ATS. As to the kind of experiment: mouse, dose not given. The following applies: ASO.
With “RNA1{[moe](G)[sp].[moe](T)p.[moe]([m5C])p.[moe](A)p.[moe](T)p.d([m5C])[sp].d(A)[sp].d([m5C])[sp].d([m5C])[sp].d(T)[sp].d([m5C])[sp].d(T)[sp].d([m5C])[sp].d(T)[sp].d(T)[sp].[moe]([m5C])p.[moe](A)p.[moe](G)[sp].[moe](G)}$$$$ (last 3' nucleoside missing)”, the 3 h FOB score stood at 1 score 0-7.

On to “RNA1{[moe](T)[sp].[moe](T)p.[moe](G)p.[moe](A)p.[moe](T)p.d([m5C])[sp].d(T)[sp].d(A)[sp].d(T)[sp].d(T)[sp].d(A)[sp].d(T)[sp].d(G)[sp].d(A)[sp].d(G)[sp].[moe](G)p.[moe](G)p.[moe]([m5C])[sp].[moe](A)}$$$$ (last 3' nucleoside missing)”, for which the 3 h FOB score was found to be 4.7 score 0-7.

Regarding “RNA1{[moe](T)[sp].[moe](T)p.[moe](A)p.[moe](A)p.[moe]([m5C])p.d(T)[sp].d(G)[sp].d([m5C])[sp].d(T)[sp].d(T)[sp].d([m5C])[sp].d(A)[sp].d([m5C])[sp].d([m5C])[sp].d(A)[sp].[moe](T)p.[moe](T)p.[moe](T)[sp].[moe](T)}$$$$ (last 3' nucleoside missing)”, the 3 h FOB score worked out at 1 score 0-7.

For “RNA1{[moe](A)[sp].[moe](A)p.[moe](A)p.[moe](A)p.[moe](T)p.d(A)[sp].d([m5C])[sp].d([m5C])[sp].d(A)[sp].d([m5C])[sp].d(A)[sp].d(A)[sp].d(A)[sp].d(G)[sp].d(A)[sp].[moe](T)p.[moe](A)p.[moe](G)[sp].[moe](G)}$$$$ (last 3' nucleoside missing)”, the 3 h FOB score came out at 2.5 score 0-7.

For the substance “RNA1{[moe](T)[sp].[moe]([m5C])p.[moe](A)p.[moe](A)[sp].d([m5C])[sp].d([m5C])[sp].d(A)[sp].d(A)[sp].d(T)[sp].d(T)[sp].d(T)[sp].d(G)[sp].[moe]([m5C])p.[moe](T)p.[moe](A)p.[moe](T)[sp].[moe](T)}$$$$ (last 3' nucleoside missing)”, the 3 h FOB score was 0.7 score 0-7.

For the substance “RNA1{[moe](G)[sp].[moe]([m5C])p.[moe](A)p.[moe](T)p.[moe](T)p.d(G)[sp].d(G)[sp].d([m5C])[sp].d(T)[sp].d(T)[sp].d([m5C])[sp].d(A)[sp].d(T)[sp].d(A)[sp].d(T)[sp].[moe](T)p.[moe](T)p.[moe]([m5C])[sp].[moe](T)}$$$$ (last 3' nucleoside missing)”, the 3 h FOB score turned out to be 1 score 0-7.

Take “RNA1{[moe](G)[sp].[moe](T)p.[moe](G)p.[moe]([m5C])p.[moe]([m5C])p.d(T)[sp].d(T)[sp].d(T)[sp].d([m5C])[sp].d(T)[sp].d(A)[sp].d(T)[sp].d(T)[sp].d(T)[sp].d([m5C])[sp].[moe](A)p.[moe](G)p.[moe](A)[sp].[moe]([m5C])}$$$$ (last 3' nucleoside missing)”: the 3 h FOB score stood at 0 score 0-7.

Consider “RNA1{[moe](T)[sp].[moe](T)p.[moe](G)p.[moe](G)p.[moe](T)p.d([m5C])[sp].d(A)[sp].d(T)[sp].d([m5C])[sp].d(T)[sp].d([m5C])[sp].d(G)[sp].d(G)[sp].d(G)[sp].d(T)[sp].[moe](A)p.[moe](T)p.[moe](A)[sp].[moe](T)}$$$$ (last 3' nucleoside missing)”, for which the 3 h FOB score was 5.7 score 0-7.

Take “RNA1{[moe](G)[sp].[moe](G)p.[moe](T)p.[moe]([m5C])p.d(A)[sp].d(T)[sp].d([m5C])[sp].d(T)[sp].d([m5C])[sp].d(G)[sp].d(G)[sp].d(G)[sp].d(T)[sp].d(A)[sp].[moe](T)p.[moe](A)p.[moe](T)p.[moe](A)[sp].[moe](A)}$$$$ (last 3' nucleoside missing)”: the 3 h FOB score was found to be 5.5 score 0-7.

“RNA1{[moe](A)[sp].[moe](T)p.[moe](G)p.[moe](A)p.[moe](T)p.d([m5C])[sp].d(A)[sp].d(T)[sp].d(A)[sp].d([m5C])[sp].d(T)[sp].d(G)[sp].d(G)[sp].d(A)[sp].d(G)[sp].[moe]([m5C])p.[moe]([m5C])p.[moe](A)[sp].[moe](G)}$$$$ (last 3' nucleoside missing)” yielded a 3 h FOB score of 5.8 score 0-7.

Regarding “RNA1{[moe](G)[sp].[moe](A)p.[moe](G)p.[moe](A)p.[moe](T)p.d(A)[sp].d(G)[sp].d(A)[sp].d(A)[sp].d([m5C])[sp].d(A)[sp].d([m5C])[sp].d(T)[sp].d(T)[sp].d([m5C])[sp].[moe](G)p.[moe]([m5C])p.[moe]([m5C])[sp].[moe](G)}$$$$ (last 3' nucleoside missing)”, the 3 h FOB score was 5 score 0-7.

For “RNA1{[moe](G)[sp].[moe]([m5C])p.[moe]([m5C])p.[moe](A)[sp].d(G)[sp].d(G)[sp].d(T)[sp].d(G)[sp].d(T)[sp].d([m5C])[sp].d(T)[sp].d(T)[sp].[moe](A)p.[moe](T)p.[moe](A)p.[moe](T)[sp].[moe]([m5C])}$$$$ (last 3' nucleoside missing)”, the 3 h FOB score came out at 1 score 0-7.

As for “RNA1{[moe]([m5C])[sp].[moe](T)p.[moe](A)p.[moe](T)p.[moe]([m5C])p.d(T)[sp].d(G)[sp].d(T)[sp].d(A)[sp].d([m5C])[sp].d(A)[sp].d(A)[sp].d(A)[sp].d(A)[sp].d(T)[sp].[moe](G)p.[moe](G)p.[moe](A)[sp].[moe](A)}$$$$ (last 3' nucleoside missing)”, the 3 h FOB score turned out to be 0 score 0-7.

As to “RNA1{[moe](G)[sp].[moe]([m5C])p.[moe](T)p.[moe]([m5C])p.[moe](A)p.d(T)[sp].d([m5C])[sp].d(A)[sp].d([m5C])[sp].d(A)[sp].d(A)[sp].d([m5C])[sp].d(T)[sp].d(G)[sp].d(G)[sp].[moe](G)p.[moe](T)p.[moe](G)[sp].[moe](G)}$$$$ (last 3' nucleoside missing)”, the 3 h FOB score came out at 1 score 0-7.

In turn, “RNA1{[moe](G)[sp].[moe](T)p.[moe](T)p.[moe](T)p.[moe](T)p.d(T)[sp].d([m5C])[sp].d([m5C])[sp].d(A)[sp].d(T)[sp].d(T)[sp].d(T)[sp].d(T)[sp].d(T)[sp].d([m5C])[sp].[moe](T)p.[moe]([m5C])p.[moe](T)[sp].[moe](T)}$$$$ (last 3' nucleoside missing)” showed a 3 h FOB score of 0 score 0-7.

On to “RNA1{[moe](G)[sp].[moe](T)p.[moe](G)p.[moe](A)p.d(G)[sp].d([m5C])[sp].d(T)[sp].d(A)[sp].d(T)[sp].d([m5C])[sp].d(T)[sp].d(G)[sp].d(T)[sp].d(A)[sp].[moe]([m5C])p.[moe](A)p.[moe](A)p.[moe](A)[sp].[moe](A)}$$$$ (last 3' nucleoside missing)”, for which the 3 h FOB score is 4 score 0-7.

“RNA1{[moe](G)[sp].[moe](T)p.[moe](G)p.[moe](T)p.[moe](G)p.d(G)[sp].d(A)[sp].d(T)[sp].d(G)[sp].d(G)[sp].d(T)[sp].d(A)[sp].d(T)[sp].d([m5C])[sp].d([m5C])[sp].[moe](T)p.[moe](G)p.[moe](G)[sp].[moe](T)}$$$$ (last 3' nucleoside missing)” came in with a 3 h FOB score of 5.5 score 0-7.

Take “RNA1{[moe](T)[sp].[moe]([m5C])p.[moe](A)p.[moe](A)p.[moe]([m5C])[sp].d([m5C])[sp].d(A)[sp].d(A)[sp].d(T)[sp].d(T)[sp].d(T)[sp].d(G)[sp].d([m5C])[sp].[moe](T)p.[moe](A)p.[moe](T)[sp].[moe](T)}$$$$ (last 3' nucleoside missing)”: the 3 h FOB score stood at 3 score 0-7.

“RNA1{[moe]([m5C])[sp].[moe](G)p.[moe](T)p.[moe](G)p.[moe](A)p.[moe](G)[sp].d([m5C])[sp].d(T)[sp].d(A)[sp].d(T)[sp].d([m5C])[sp].d(T)[sp].d(G)[sp].d(T)[sp].[moe](A)p.[moe]([m5C])[sp].[moe](A)}$$$$ (last 3' nucleoside missing)” registered a 3 h FOB score of 2 score 0-7.

In turn, “RNA1{[moe](T)[sp].[moe](A)p.[moe](T)p.[moe](G)p.[moe](T)p.d(A)[sp].d(G)[sp].d([m5C])[sp].d(T)[sp].d([m5C])[sp].d(A)[sp].d(G)[sp].d([m5C])[sp].d(T)[sp].d([m5C])[sp].[moe](A)p.[moe](A)p.[moe](T)[sp].[moe](G)}$$$$ (last 3' nucleoside missing)” displayed a 3 h FOB score of 1 score 0-7.

The substance “RNA1{[moe](A)[sp].[moe](T)p.[moe]([m5C])p.[moe](A)p.[moe](T)p.d(G)[sp].d(T)[sp].d(G)[sp].d([m5C])[sp].d(A)[sp].d(T)[sp].d(A)[sp].d([m5C])[sp].d([m5C])[sp].d([m5C])[sp].[moe](A)p.[moe](G)p.[moe](G)[sp].[moe](G)}$$$$ (last 3' nucleoside missing)” came in with a 3 h FOB score of 0 score 0-7.

As for “RNA1{[moe](T)[sp].[moe](T)p.[moe]([m5C])p.[moe](A)p.[moe]([m5C])p.[moe]([m5C])p.d(A)[sp].d(T)[sp].d(T)[sp].d(T)[sp].d(T)[sp].d(G)[sp].d(A)[sp].d([m5C])[sp].d([m5C])[sp].d(T)[sp].[moe](T)p.[moe]([m5C])[sp].[moe](T)}$$$$ (last 3' nucleoside missing)”, the 3 h FOB score is 0 score 0-7.

With “RNA1{[moe](G)[sp].[moe](T)p.[moe]([m5C])p.[moe](A)p.[moe](T)p.[moe]([m5C])p.d(T)[sp].d([m5C])[sp].d(G)[sp].d(G)[sp].d(G)[sp].d(T)[sp].d(A)[sp].d(T)[sp].d(A)[sp].d(T)[sp].[moe](A)p.[moe](A)[sp].[moe](A)}$$$$ (last 3' nucleoside missing)”, the 3 h FOB score came out at 4 score 0-7.

In turn, “RNA1{[moe](A)[sp].[moe](G)p.[moe]([m5C])p.[moe]([m5C])p.[moe](A)p.d(G)[sp].d(G)[sp].d(T)[sp].d(G)[sp].d(T)[sp].d([m5C])[sp].d(T)[sp].d(T)[sp].d(A)[sp].d(T)[sp].[moe](A)p.[moe](T)p.[moe]([m5C])[sp].[moe](T)}$$$$ (last 3' nucleoside missing)” registered a 3 h FOB score of 2.3 score 0-7.

The substance “RNA1{[moe]([m5C])[sp].[moe](T)p.[moe](T)p.[moe](A)p.[moe](G)p.d(A)[sp].d(T)[sp].d(G)[sp].d(T)[sp].d(G)[sp].d(T)[sp].d(T)[sp].d(T)[sp].d(A)[sp].d(T)[sp].[moe]([m5C])p.[moe]([m5C])p.[moe](A)[sp].[moe](A)}$$$$ (last 3' nucleoside missing)” gave a 3 h FOB score of 1.2 score 0-7.

Turning to “RNA1{[moe](G)[sp].[moe](T)p.[moe](A)p.[moe](T)p.[moe]([m5C])p.d(A)[sp].d(G)[sp].d(G)[sp].d([m5C])[sp].d(A)[sp].d(A)[sp].d([m5C])[sp].d(A)[sp].d(G)[sp].d(A)[sp].[moe](A)p.[moe](T)p.[moe]([m5C])[sp].[moe](T)}$$$$ (last 3' nucleoside missing)”, the 3 h FOB score worked out at 4.3 score 0-7.
